Source: patent publication US9242984B2, “Pyrazolyl derivatives as Syk inhibitors” (Merck Sharp & Dohme Corp., priority 2012, dated 2016)
pIC50: −log10 of the molar value.

The molecules below were run against T1, recombinant human Syk (GST-hSyk fusion protein) (Homo sapiens, UniProt P43405) (assay: Homogeneous Time-Resolved Fluorescence (HTRF) assay for the recombinant human Syk enzyme). Details: 10-dose titration, 25 μM ATP; read-out: rhSYK IC50.
T1 construct: purchased Carna Biosciences 08-176
Assay type: biochemical
Summary of the method: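 IC50 came from a four-parameter fit over ten doses, 10 μM to 0.508 nM, with HTRF read-out (Eu-anti-pTyr antibody, SA-APC, EDTA stop, 30 min). The enzyme, 5 pM GST-hSyk, met compound for 10 min, then phosphorylated 250 nM biotin-peptide with 25 μM ATP and 5 mM Mg for 45 min at room temperature, pH 7.5.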

pIC50 | Molecule
9.15 | Cc1cc(Nc2nccc(C(F)F)n2)cc(-c2cnn(C3CCCC(O)C3O)c2)c1 (single isomer, unassigned) [Example 10.7, 3-[4-(3-{[4-(difluoromethyl)pyrimidin-2-yl]amino}-5-methylphenyl)-1H-pyrazol-1-yl]cyclohexane-1,2-diol]
8.21 | Cc1cc(Nc2nccc(C(F)F)n2)cc(-c2cnn(CC(C)(O)C(F)(F)F)c2)c1 (single isomer, unassigned) [Example 24.2, (S or R)-3-(4-(3-((4-(difluoromethyl)pyrimidin-2-yl)amino)-5-methylphenyl)-1H-pyrazol-1-yl)-1,1,1-trifluoro-2-methylpropan-2-ol]

Same assay, conditions: IC50 class; 10-dose titration, 25 μM ATP; read-out: rhSYK Activity

Molecule | pIC50
Cc1cc(Nc2cc(C(F)(F)F)ccn2)nc(-c2cnn(CCC(=O)O)c2)c1 [Example 1.21, 3-[4-(4-methyl-6-{[4-(trifluoromethyl)pyridin-2-yl]amino]pyridin-2-yl)-1H-pyrazol-1-yl)propanoic acid] | ≥ 7.00
CCC(C)(O)Cn1cc(-c2cc(C)cc(Nc3nccc(C(F)F)n3)c2)cn1 (stereo not shown) [Example 3.114, 1-[4-(3-{[4-(difluoromethyl)pyrimidin-2-yl]amino}-5-methylphenyl)-1H-pyrazol-1-yl]-2-methylbutan-2-ol] | ≥ 7.00
Cc1cc(Nc2nccc(C(F)(F)F)n2)cc(-c2cnn(CC(=O)N3[C@H](C)COC[C@@H]3C)c2)c1 [Example 3.14, N-[3-(1-{2-[(3r,5s)-3,5-dimethyl-morpholin-4-yl]-2-oxoethyl}-1H-pyrazol-4-yl)-5-methylphenyl]-4-(trifluoromethyl)-pyrimidin-2-amine] | 6.00 to 7.00
Cc1cc(Nc2nccc(C(C)O)n2)cc(-c2cnn(C[C@](C)(O)CO)c2)c1 (stereo partly drawn) [Example 2.87, (2S)-3-[4-(3-{[4-(1-hydroxyethyl)pyrimidin-2-yl]amino}-5-methylphenyl)-1H-pyrazol-1-yl]-2-methylpropane-1,2-diol] | ≥ 7.00
4-{[4-(4-methyl-6-{[4-(trifluoromethyl)-pyridin-2-yl]amino}-pyridin-2-yl)-1H-pyrazol-1-yl]methyl}-pyrrolidin-2-one [Example 1.39] | ≥ 7.00
Cc1cc(Nc2nccc(C3CC3)n2)cc(-c2cnn(C[C@](C)(O)CO)c2)c1 [Example 2.90, (2S)-3-(4-{3-[(4-cyclopropylpyrimidin-2-yl)amino]-5-methylphenyl}-1H-pyrazol-1-yl)-2-methylpropane-1,2-diol] | ≥ 7.00
Cc1cc(Nc2nccc(C(F)F)n2)cc(-c2cnn(C3CCC(C(=O)O)CC3)c2)c1 (stereo not shown) [Example 2.60, 4-[4-(3-{[4-(difluoromethyl)pyrimidin-2-yl]amino}-5-methylphenyl)-1H-pyrazol-1-yl]cyclohexanecarboxylic acid] | ≥ 7.00
Cc1cc(Nc2nccc(C(F)F)n2)cc(-c2cnn(C(C)C3CNC(=O)O3)c2)c1 (stereo not shown) [Example 3.93, 5-{1-[4-(3-{[4-(difluoromethyl)pyrimidin-2-yl]amino}-5-methylphenyl)-1H-pyrazol-1-yl]ethyl}-1,3-oxazolidin-2-one] | ≥ 7.00
Cc1cc(Nc2nccc(C(C)(F)F)n2)cc(-c2cnn(CC3OC(=O)NC3(C)C)c2)c1 (stereo not shown) [Example 3.101, 5-{[4-(3-{[4-(1,1-difluoroethyl)pyrimidin-2-yl]amino}-5-methylphenyl)-1H-pyrazol-1-yl]methyl}-4,4-dimethyl-1,3-oxazolidin-2-one] | ≥ 7.00
Cc1ccnc(Nc2cc(C)cc(-c3cnn(CCC(=O)O)c3)n2)c1 [Example 1.20, 3-(4-{4-methyl-6-[(4-methylpyridin-2-yl)amino]pyridin-2-yl}-1H-pyrazol-1-yl)propanoic acid] | 6.00 to 7.00
Cc1cc(Nc2ncc(Cl)c(C)n2)cc(-c2cnn(CC3CNC(=O)O3)c2)c1 (stereo not shown) [Example 2.32, 5-[(4-{3-[(5-chloro-4-methylpyrimidin-2-yl)amino]-5-methylphenyl}-1H-pyrazol-1-yl)methyl]-1,3-oxazolidin-2-one] | ≥ 7.00

Now from value to molecule:

pIC50 | Molecule
≥ 7.00 | Cc1cc(Nc2nccc(C)n2)cc(-c2cnn(CC3OC(=O)NC3C)c2)c1 (single isomer, unassigned) [Example 23.7, 4-methyl-5-[(4-{3-methyl-5-[(4-methylpyrimidin-2-yl)amino]phenyl}-1H-pyrazol-1-yl)methyl]-1,3-oxazolidin-2-one]
≥ 7.00 | Cc1cc(Nc2nccc(C(F)F)n2)cc(-c2cnn(C3CCCC(O)C3O)c2)c1 (single isomer, unassigned) [Example 10.7, 3-[4-(3-{[4-(difluoromethyl)pyrimidin-2-yl]amino}-5-methylphenyl)-1H-pyrazol-1-yl]cyclohexane-1,2-diol]
≥ 7.00 | Cc1cc(Nc2ncc(F)c(C(F)F)n2)cc(-c2cnn(CC3OC(=O)NC3C)c2)c1 (single isomer, unassigned) [Example 23.21, 5-{[4-(3-{[4-(difluoromethyl)-5-fluoropyrimidin-2-yl]amino}-5-methylphenyl)-1H-pyrazol-1-yl]methyl}-4-methyl-1,3-oxazolidin-2-one]
≥ 7.00 | Cc1cc(Nc2nccc(OC(C)C)n2)cc(-c2cnn(C[C@@H](O)C(=O)O)c2)c1 [Example 11.14, (2R)-2-hydroxy-3-[4-(3-methyl-5-{[4-(1-methylethoxy)-pyrimidin-2-yl]amino}-phenyl)-1H-pyrazol-1-yl]propanoic acid]
≥ 7.00 | COc1ccnc(Nc2cc(C)cc(-c3cnn(C[C@@H](O)C(=O)O)c3)c2)n1 [Example 11.8, (2R)-2-hydroxy-3-(4-{3-[(4-methoxy-pyrimidin-2-yl)-amino]-5-methyl-phenyl}-1H-pyrazol-1-yl)propanoic acid]
≥ 7.00 | Cc1cc(Nc2nccc(C(F)(F)F)n2)cc(-c2cnn(CC(C)(O)C(N)=O)c2)c1 (single isomer, unassigned) [Example 8.15, 2-hydroxy-2-methyl-3-[4-(3-methyl-5-{[4-(trifluorometh-yl)pyrimidin-2-yl]amino}phenyl)-1H-pyrazol-1-yl]propanamide]
≥ 7.00 | Cc1cc(Nc2nccc(C(F)F)n2)cc(-c2cnn(CC(C)(O)C(F)(F)F)c2)c1 (single isomer, unassigned) [Example 24.2, (S or R)-3-(4-(3-((4-(difluoromethyl)pyrimidin-2-yl)amino)-5-methylphenyl)-1H-pyrazol-1-yl)-1,1,1-trifluoro-2-methylpropan-2-ol]
≥ 7.00 | Cc1cc(Nc2nccc(C(C)(F)F)n2)cc(-c2cnn(CC3OC(=O)NC3C)c2)c1 (single isomer, unassigned) [Example 23.12, 5-{[4-(3-{[4-(1,1-difluoroethyl)pyrimidin-2-yl]amino}-5-methylphenyl)-1H-pyrazol-1-yl]methyl}-4-methyl-1,3-oxazolidin-2-one]
≥ 7.00 | Cc1cc(Nc2nccc(C(F)(F)F)n2)cc(-c2cnn(CC(O)C(=O)O)c2)c1 (racemic) [Example 5.14, 2-hydroxy-3-[4-(3-methyl-5-{[4-(trifluoro-methyl)pyrimidin-2-yl]amino}-phenyl)-1H-pyrazol-1-yl]propanoic acid]
≥ 7.00 | Cc1cc(Nc2nccc(C)n2)cc(-c2cnn(C[C@@H](O)C(=O)O)c2)c1 [Example 11.10, (2R)-2-hydroxy-3-(4-{3-methyl-5-[(4-methylpyrimidin-2-yl)amino]phenyl}-1H-pyrazol-1-yl)propanoic acid]
≥ 7.00 | Cc1cc(Nc2nccc(C(F)(F)F)n2)cc(-c2cnn(CC(C)(O)C(N)=O)c2)c1 (stereo not shown) [Example 8.23, 2-hydroxy-2-methyl-3-[4-(3-methyl-5-{[4-(trifluoromethyl)-pyrimidin-2-yl]amino}-phenyl)-1H-pyrazol-1-yl]propanamide]
≥ 7.00 | Cc1cc(Nc2nccc(C)n2)cc(-c2cnn(CC3OC(=O)NC3C)c2)c1 (single isomer, unassigned) [Example 23.8, 4-methyl-5-[(4-{3-methyl-5-[(4-methylpyrimidin-2-yl)amino]phenyl}-1H-pyrazol-1-yl)methyl]-1,3-oxazolidin-2-one]
